Assay: Human HepG2 cell viability assay in 384 well format
Format: toxicity, cell-based
Set-up: dose 125 nL, time 70.5 hour; concentration not given beside the values
Settings: HepG2 cells, read-out: Inhibition

SMILES | cytotoxicity at 70.5 h
Cc1cnc(C(C)(C)NC(=O)NCc2ccc(C#N)cc2F)s1 | -5.64%
CN(CCc1ccccc1)C(=O)c1cccnc1OCC(F)(F)F | 20%
CS(=O)(=O)NCC1CCCN(C(=O)c2ccco2)C1 (stereo not drawn) | -6.79%
CCCNC(=O)c1cc(OC)c(OC)cc1N(C)S(C)(=O)=O | -8.53%
COCCc1noc(CN2CCCCC2Cn2cc(C)cn2)n1 (stereo not drawn) | -11.7%
O=C(NCCCOCc1ccco1)c1cccnc1N1CCOCC1 | 6.19%
CC(=O)N1CCc2nc3sc(C(N)=O)c(N)c3c(C(F)(F)F)c2C1 | 6.92%
CNC(=O)[C@H]1C[C@@H]2CN(Cc3cccnc3OC)C[C@@H]2N1C(C)=O | -9.57%
CC1CCN(C(=O)NCC(=O)N(C)CC(F)(F)F)C1 (stereo not drawn) | -4.12%
CC(C)N1CCCC(N2CCOC3(CCCC3)C2)C1=O (stereo not drawn) | -7.02%
COCCOc1cccc(C(=O)N2CCCC(n3ccnc3)C2)c1 (stereo not drawn) | -4.62%
Cc1ccc(C(=O)NCc2cc(F)ccc2N2CCCN(C)CC2)o1 | 1.17%
CC(C)c1nc(S(=O)(=O)N(C)c2cc(F)ccc2F)c[nH]1 | -4.89%
O=C(NC1CCN(C2CC2)CC1)c1cn(-c2ccc(Cl)cc2)nn1 | -7.11%
CC(C)c1ccc(C(N)c2cccs2)cc1 (stereo not drawn) | -5.3%
O=C(NCC1CCCCO1)c1cc(Cn2cnc3ccccc32)[nH]n1 (stereo not drawn) | -6.38%
CNC(=O)N1CCOCC1c1c(C)nn(C)c1C (stereo not drawn) | 2.35%
CCc1noc(C(C)N2CCN(Cc3noc(C)n3)CC2)n1 (stereo not drawn) | 26.6%
N#Cc1c(F)cccc1Nc1cnn(CC(=O)N2CCOCC2)c1 | 39.8%
COc1ccc(F)cc1C(=O)N(C)Cc1cc(C)on1 | -15.7%
Cc1ccccc1SCC(=O)Nn1cnnc1 | -9.7%
Cc1ccc(NC2CCN(C(=O)Cn3nc(C)cc3C)CC2)nn1 | -6.3%
COCC(C)N(C)C(=O)NC1CCN(S(C)(=O)=O)CC1 (stereo not drawn) | -6.45%

SMILES | cytotoxicity at 70.5 h
Cc1cc(C(=O)NC2(c3ccc(Br)cc3)CC2)n(C)n1 | 6.63%
OCCNc1cc(-c2nccnc2N2CCCC2)c2cc[nH]c2n1 | 34%
CN(C)CCO[C@@H]1CC[C@H]2[C@H]1OCCN2C(=O)c1ccnnc1 | 22.4%
COc1cc(-c2cc(C3CCOC3)c(C#N)c(N)n2)ccc1O (stereo not drawn) | -6.12%
Cc1ccc(C)c(S(=O)(=O)NC(=O)COc2cccc(C#N)c2)c1 | -2.88%
O=C(NCCCc1nc(=O)[nH][nH]1)c1ccc(Cl)cn1 | -15.2%
Cn1cc(-c2nc(C3CCN(CC4CC4)CC3)cc3c2ncn3C)cn1 | -1.1%
Cc1cnn(CC2CCCN2C(=O)c2csc(-c3nnc[nH]3)n2)c1 (stereo not drawn) | -5%
CC(CC#N)n1ccc(C(F)(F)F)n1 (stereo not drawn) | -0.316%
c1cc(CN2CCO[C@H]3[C@H](OCCN4CCCC4)CC[C@@H]32)ccn1 | -11.7%
CC(C)Oc1ncccc1CNC(=O)c1cnccn1 | -5.94%
CC(C)(C)c1c[nH]c([C@@H]2COCCN2C2CCOCC2)n1 | 12.2%
COCc1nnn2c1CN(C(=O)c1ccnnc1)CCC2 | 8.76%
O=C(O)c1ccccc1C1CCN(Cc2ccc(-c3cc[nH]n3)o2)C1 (stereo not drawn) | -2.33%
CC(C)(C)c1oc(C(N)=O)cc1CN1CCCCC1CN1CCOCC1 (stereo not drawn) | 39.9%
CCc1nn(C)c2[nH]nc(NC(=O)c3ccccc3COC)c12 | -101%
CC(C)CCC(=O)N1CCN(c2ncnc3nc(N)ccc23)CC1 | -6.9%
Cn1cc(CN2CC[C@@H]3[C@@H]2CCN3C(=O)c2cccc(F)c2)cn1 | -14.7%
COc1ccc(COCC(O)CNC(=O)Cc2ccc(C)cc2)cc1 (stereo not drawn) | -2.43%
Cc1nc(CSCCC(=O)NCc2ccncc2)cs1 | -6.44%
Cc1ccc([C@@]2(O)CC[C@@H]3CN(S(=O)(=O)c4cn(C)nc4C)C[C@@H]32)cc1 | -2.34%
NC(=O)CC1CCN(C(=O)c2csc(-c3ccccc3F)n2)CC1 | -18.8%
COc1ccc(CN(CC2CCCO2)c2nc3c(s2)c(C)nn3C)cc1 (stereo not drawn) | 41.8%

SMILES | cytotoxicity at 70.5 h
COc1c[nH]c(C(=O)N2CCN(c3ccccc3)CC2)cc1=O | -11.3%
Cc1ccoc1C(=O)N1CCc2ncnc(-c3cnn(C)c3)c2CC1 | 24.7%
COC(=O)C1C=CCN1C(=O)c1cc(COc2ccccc2)[nH]n1 (stereo not drawn) | -5.33%
CN1CCCN(c2nc(C3CCCC3)nc3c2cnn3C)CC1 | 14.5%
CS(=O)(=O)c1ccc(CNC(=O)NCC2CCOC2)cc1 (stereo not drawn) | 4.53%
CO[C@@H]1CCN(Cc2cnn(C)c2)[C@@H]2CN(Cc3ccco3)C[C@@H]21 | -13.3%
Cc1ccc(S(=O)(=O)NCc2[nH]ncc2Br)cc1C | -8.92%
Cc1ccc(CN(C)c2nccc(-c3cn(C)nc3C)n2)o1 | -9.08%
CCC(NC(=O)COC)c1ccccc1OCC(=O)N1CCCC1 (stereo not drawn) | -4.2%
Cc1ccc(C(=O)NS(=O)(=O)c2cccc3cnccc23)c(=O)[nH]1 | -6.04%
COc1cccc(CN2CC3(CCNCC3)CCC2=O)c1OC | 0.619%
COc1ccc(CSCC(O)CO)c(Cl)c1 (stereo not drawn) | 18.2%
O=C(NCc1nnc2n1CCC2)c1ccc(Br)s1 | -5.66%
COc1cccc2c1ccn2CCNC(C)=O | -16.2%
Cc1nc2ccccc2nc1CN1CCc2c(nc(C3CC3)n2C)C1 | -0.539%
Cc1noc(OCc2ccc(C#N)cc2)n1 | -0.0296%
CCc1cc(C(=O)N2CCCC2c2nc(C)c(CC)c(O)n2)on1 (stereo not drawn) | -6.15%
CCCC(C)Sc1nnnn1C1CCOCC1 (stereo not drawn) | -12.8%
CN(C)C(=O)c1cccn1-c1ccc2c(c1)OCCO2 | -2.2%
CN(CCO)C[C@@H]1CN(C2CCN(c3ccccc3Cl)CC2)C[C@@H]1CO | -10.1%
Cn1cnnc1-c1ccnc(NCc2ccc3c(c2)OCCO3)c1 | -3.05%
C1CCC(CN2Cc3nnn(CC4CC4)c3C(COCC3CC3)C2)C1 (stereo not drawn) | -8.05%
CCc1nnc2n1CCN(C(=O)c1ccc3cc[nH]c3c1)C2 | -4.35%

SMILES | cytotoxicity at 70.5 h
Cc1ccnc(C(Nc2nccc(-c3ccc(C)nc3C)n2)C2CC2)c1 (stereo not drawn) | -6.77%
COCC(NC(=O)c1cc[nH]n1)c1cccc(C(F)(F)F)c1 (stereo not drawn) | -0.606%
CC(C)(C)OC(=O)N1CCN(C(=O)c2cnn3c2OCCC3)CC1 | -0.601%
CN1CC2(CCN(Cc3ccoc3)CC2)COc2ccccc2S1(=O)=O | -12.1%
OC(COc1ccccc1)CN1CCc2c(ncn2C2CC2)C1 (stereo not drawn) | -6.53%
CCOCCN1CCN(Cc2nnc(-c3occc3C)o2)CC1 | 9.82%
C=Cc1ccc(C(=O)NC2CCCc3nc(N(C)C)ncc32)cc1 (stereo not drawn) | 16.1%
CN(C)c1cncc(-c2ccnc3c2ccn3C)n1 | -0.942%
COc1nn(C)c2c1CCCN(S(=O)(=O)c1cccs1)C2 | 12.6%
N#Cc1cccc(N2CCC3(CCC(=O)N(CC4CCCO4)C3)CC2)n1 (stereo not drawn) | 0.613%
COc1cc(C)ccc1OCC(=O)NS(=O)(=O)c1cccnc1 | -3.71%
COC[C@@]12CCO[C@@H]1CCN(C(=O)C1CC(F)(F)C1)C2 | -11.5%
O=c1ccc2c(n1CC1CC1)CCC(NS(=O)(=O)C1CC1)C2 (stereo not drawn) | 21.2%
CC(C)(C)NC(=O)C1CCCCN1Cc1nccn1CC(F)(F)F (stereo not drawn) | -0.987%
N#Cc1cccc(CS(=O)(=O)NCC(O)Cc2ccccc2)c1 (stereo not drawn) | -0.967%
CN(CC1CC1)C(=O)CN1CCCC1c1cnn(C)c1 (stereo not drawn) | 1.65%
COC(C)(C)C(=O)N1CCC(c2cc(CN(C)C)n(C)n2)CC1 | -10.8%
CC(=O)CC(C)(C)NC(=O)CCN(C)Cc1ccc(Cl)s1 | -9.29%
CCN1CC2(CC1=O)CN(C(=O)NC(C)C)CCN(S(C)(=O)=O)C2 (stereo not drawn) | -2.48%
COc1ccc(C2Nc3ccccc3NC3=C2C(=O)NC3)cc1OC (stereo not drawn) | -7.99%
CC(=O)N1CCC(C(=O)N2CCC2c2nc(-c3ccc(C)s3)no2)CC1 (stereo not drawn) | 9.04%
CC(C)c1ccc(CN2CCCC3(CC2)CN(C)C(=O)O3)cc1 (stereo not drawn) | -1.93%
COc1ccccc1N1CCC(CNS(=O)(=O)c2c(C)nn(C)c2C)C1 (stereo not drawn) | 2.25%

SMILES | cytotoxicity at 70.5 h
Cc1cccc(COC2COC3(CCN(Cc4ccoc4)CC3)C2)n1 (stereo not drawn) | -16.1%
O=C(c1ccncc1)N1CC[C@H]2[C@H]1CCN2S(=O)(=O)C1CC1 | -5.53%
Cc1cccc(CN2CCO[C@H]3[C@@H](OCc4ccncc4)CC[C@@H]32)n1 | -7.09%
OCc1cnc(Nc2ccccc2)nc1 | 10.1%
CCC1CN(C(=O)c2[nH]nc(C)c2Br)CCO1 (stereo not drawn) | -6.3%
O=C(N[C@@H]1CN[C@H]2CCCO[C@H]21)c1cnccn1 | -0.404%
O=C(c1ccc(C2CCCO2)s1)N1CCS(=O)(=O)CC1 (stereo not drawn) | -8.51%
CN(C)c1ccc(C(=O)NCC2(c3ccccc3)CCOCC2)cc1 | -10.7%
CCn1ccc(NC(=O)C2CCC(=O)N2Cc2ccc(C)o2)n1 (stereo not drawn) | -4.94%
Cc1cc(C(N)=O)nc(C2(C)CCCN2Cc2cnn(C)c2)n1 (stereo not drawn) | -4.52%
O=c1oc2ccccc2n1CCN(CC1CCOC1)C1CC1 (stereo not drawn) | -11.1%
Cc1nc(CCN(C)C(=O)CN2C(=O)OC[C@@H]2c2ccccc2)no1 | -4.02%
CN(C)CCn1ccnc1C1CCCN(c2ncc(Cl)cc2F)C1 (stereo not drawn) | -3.65%
CCc1ncc2c(n1)CN(CC(=O)NCCOc1ccccc1)CC2 | -5.27%
CO[C@H]1CCN(S(=O)(=O)c2cccs2)[C@H]1Cc1cccnc1 | 2.3%
Cc1nc2cc(=O)[nH]n2c(C)c1CC(=O)NCc1ccoc1 | -1.36%
O=C1CNc2ncnc(Nc3cnn(Cc4ccccc4)c3)c2N1 | 27%
Cc1nc(NC(=O)C(C)n2ncc(Br)c2C)sc1C (stereo not drawn) | 1.11%
O=C(NCc1ccc(Cl)cc1)C1CCCN(c2ccc3nncn3n2)C1 (stereo not drawn) | -9.54%
Cc1noc(CNC(=O)C(C)(C)NC(=O)OC(C)(C)C)n1 | 18.7%
CCCc1cc(N2CCCC2Cn2nc(C)nc2C)n2ncnc2n1 (stereo not drawn) | -0.261%
